Results: US20100249064A1, “METHODS AND COMPOSITIONS FOR TREATING DISEASES AND CONDITIONS INVOLVING HIGHER MOLECULAR WEIGHT HYALURONAN” (University of Chicago, priority 2007, published 2010)

Experiments:
[1] = system: Human pulmonary artery EC; experiment: Cortical actin (phalloidin) staining and quantitation; format: cell-based; settings: for cortical actin ring formation (F-actin localization): early, timepoint 5 min
Protocol: Immunofluorescence Microscopy and Cortical Actin Quantitation—Polymerized actin rearrangement was assessed first with Texas Red-conjugated phalloidin (Invitrogen (Molecular Probes), Eugene, Oreg.) and then analyzed using a Nikon Eclipse TE 300 microscope as described (Garcia et al., 2001). ImageQuant™ software (Amersham Biosciences Corp. (Piscataway, N.J.)) was used to analyze the computer recorded .tiff images. A standardized average grey value (SAGV) was generated for total phalloidin staining versus cortical phalloidin staining for each cell (Singleton et al., 2005). The following equation was used to calculate percent cortical actin staining: ((cortical actin SAGV×area) divided by (total actin SAGV×area))×100. At least ten cells per sample were analyzed. Experiments were performed in triplicate.
Immunofluorescence Microscopy. EC were serum-starved for one hour prior to the addition of 100 nM high MW HA. EC were then fixed in 4% paraformaldehyde, permeablized with ethanol and incubated with specific protein or interest primary antibody for 30 min followed by either FITC or Texas Red-conjugated secondary (Invitrogen (Molecular Probes), Eugene, Oreg.) and analyzed using a Nikon Eclipse TE 300 microscope as described (Garcia et. al., 2001).

[2] = system: HPMVEC; experiment: EC migration (transwell); format: cell-based, human; settings: 100 nM HA with or without 100 nM VEGF, or siRNA 48 hours then VEGF; 18 hours
Protocol: Determination of the role of HMW-HA/CD44 interactions in regulating hyaluronidase activity and angiogenesis in vitro. Human pulmonary microvascular EC (HPMVEC) (Cambrex), grown in EBM-2 complete medium (Cambrex) at 37° C. in a humidified atmosphere of 5% CO2, 95% air, with passages 6-10 used for experimentation was treated with or without 100 nM HMW-HA and/or 100 nM VEGF in the presence or absence of CD44 isoform-specific blocking antibodies (EMD Biosciences), siRNA (scramble, CD44, Hyal-1, Hyal-2, Hyal-3 or Hyal-4) and the potent hyaluronidase inhibitor, L-ascorbic acid 6-hexadecanoate (Botzki et al., 2004) (Sigma). […] Treated EC will either be analyzed for protein expression, hyaluronidase activity or VEGF-induced proliferation, migration or tube formation. […] Cells from the upper and lower chamber were quantitated using the CellTiter96™ MTS assay (Promega, San Luis Obispo, Calif.) and read at 492 nm. % migration was defined as the # of cells in the lower chamber […] the number of cells in both the upper and lower chamber. Each assay was set up in triplicate, repeated at least five times and analyzed statistically by Student's t test (with statistical significance set at P<0.05). […] The in vitro cell proliferation assay was analyzed by measuring increases in cell number using the CellTiter96™ MTS assay (Promega, San Luis Obispo, Calif.) and read at 492 nm. […]

| Substance | cortical actin staining / F-actin stress fiber formation ([1]; challenge for 30 min) | cortical actin ring formation (F-actin localization) [1] | EC migration (% Migration) [2] |
| --- | --- | --- | --- |
| hyaluronan [LMW-HA, reference compound] | loss of cortical actin staining with increased F-actin stress fiber formation | induced prominent cortical actin ring formation early on | promotes EC proliferation and migration |
| hyaluronan [HMW-HA] |  | induced prominent cortical actin ring formation early on | inhibited VEGF-induced hyaluronidase expression, EC proliferation (A) and migration (B) |
